Data from the supplement of paper PMC13380429.

What was measured:
Settings in all cases: 72 h
Caco-2 [1] = assay: relative viability EC50 (midpoint between 100% and the lowest measured viability); higher = less toxic
Vero E6 [2] = assay: as above
U2OS [3] = assay: as above
HepG2 [4] = assay: as above
Calu-3 [5] = assay: as above
Caco-2 [6] = assay: drug sensitivity score (DSS) for viability; higher = more toxic; extreme values may be limits of the assay
Vero E6 [7] = assay: as above
U2OS [8] = assay: as above
HepG2 [9] = assay: as above
Calu-3 [10] = assay: as above
Caco-2 [11] = assay: cell viability relative to DMSO; higher = less toxic
Vero E6 [12] = assay: as above
U2OS [13] = assay: as above
HepG2 [14] = assay: as above
Calu-3 [15] = assay: as above

Row | SMILES | relative viability EC50 (Caco-2 [1]) [µM] | relative viability EC50 (Vero E6 [2]) [µM] | relative viability EC50 (U2OS [3]) [µM] | relative viability EC50 (HepG2 [4]) [µM] | relative viability EC50 (Calu-3 [5]) [µM] | drug sensitivity score (Caco-2 [6]) | drug sensitivity score (Vero E6 [7]) | drug sensitivity score (U2OS [8]) | drug sensitivity score (HepG2 [9]) | drug sensitivity score (Calu-3 [10]) | cell viability (Caco-2 [11]; 1 nM) [%] | cell viability (Caco-2 [11]; 10 nM) [%] | cell viability (Caco-2 [11]; 100 nM) [%] | cell viability (Caco-2 [11]; 1000 nM) [%] | cell viability (Caco-2 [11]; 10000 nM) [%] | cell viability (Vero E6 [12]; 1 nM) [%] | cell viability (Vero E6 [12]; 10 nM) [%] | cell viability (Vero E6 [12]; 100 nM) [%] | cell viability (Vero E6 [12]; 1000 nM) [%] | cell viability (Vero E6 [12]; 10000 nM) [%] | cell viability (U2OS [13]; 1 nM) [%] | cell viability (U2OS [13]; 10 nM) [%] | cell viability (U2OS [13]; 100 nM) [%] | cell viability (U2OS [13]; 1000 nM) [%] | cell viability (U2OS [13]; 10000 nM) [%] | cell viability (HepG2 [14]; 1 nM) [%] | cell viability (HepG2 [14]; 10 nM) [%] | cell viability (HepG2 [14]; 100 nM) [%] | cell viability (HepG2 [14]; 1000 nM) [%] | cell viability (HepG2 [14]; 10000 nM) [%] | cell viability (Calu-3 [15]; 1 nM) [%] | cell viability (Calu-3 [15]; 10 nM) [%] | cell viability (Calu-3 [15]; 100 nM) [%] | cell viability (Calu-3 [15]; 1000 nM) [%] | cell viability (Calu-3 [15]; 10000 nM) [%]
1 | CC(C)(N)Cc1ccccc1 [phentermine] | > 10 | > 10 | > 10 | > 10 | > 10 | 0 | 0 | 0 | 0 | 0 | 108 | 108 | 99.8 | 96.3 | 95.8 | 102 | 92.1 | 102 | 100 | 96.3 | 97.4 | 96 | 100 | 95.5 | 103 | 98.5 | 98.2 | 109 | 92.3 | 94.8 | 93.3 | 81 | 97.4 | 104 | 98.4
2 | CCCCN1CCC(CNC(=O)c2c3n(c4ccccc24)CCCO3)CC1 [piboserod] | > 10 | > 10 | > 10 | > 10 | > 10 | 0 | 0 | 0 | 0 | 0.2 | 96 | 99.8 | 96.9 | 99 | 93.4 | 93.1 | 92.7 | 95 | 91.4 | 95.9 | 97.7 | 98.7 | 97.7 | 101 | 91.9 | 94.2 | 106 | 106 | 98.5 | 95.5 | 108 | 91.9 | 102 | 104 | 83
3 | O=C(NNc1ccccc1)c1ccncc1 [plurisin-1] | > 10 | > 10 | > 10 | > 10 | > 10 | 0 | 0 | 0 | 0.4 | 0 | 106 | 106 | 105 | 91.6 | 101 | 102 | 108 | 106 | 96.7 | 95.4 | 103 | 96.3 | 101 | 99.9 | 99.6 | 110 | 109 | 104 | 114 | 77.8 | 97.9 | 96.6 | 93.2 | 103 | 106
4 | CCCn1cnc2c1c(=O)n(CCCCC(C)=O)c(=O)n2C [propentofylline] | > 10 | > 10 | > 10 | > 10 | > 10 | 0 | 0 | 0 | 0 | 0 | 91.1 | 97.5 | 91.5 | 102 | 106 | 92.4 | 92.4 | 92.1 | 93.3 | 106 | 98.4 | 98.6 | 101 | 101 | 101 | 98.6 | 106 | 103 | 96.4 | 104 | 107 | 90.8 | 99 | 94.8 | 108
5 | CCCOc1ccc(C(=O)OCCN(CC)CC)cc1N [proxymetacaine] | > 10 | > 10 | > 10 | > 10 | > 10 | 0 | 0 | 0 | 0 | 0 | 92.8 | 87 | 102 | 90 | 104 | 97.2 | 95.9 | 91.9 | 97.1 | 107 | 99.9 | 97 | 101 | 97.2 | 102 | 88.5 | 102 | 99.1 | 113 | 97.9 | 102 | 96.8 | 94.2 | 101 | 102
6 | CC(=O)NC[C@H]1CN(c2ccc(-c3ccc(CNCc4cnn[nH]4)cc3)c(F)c2)C(=O)O1 [radezolid] | > 10 | > 10 | > 10 | 0.472 | > 10 | 0 | 0 | 0 | 8.1 | 0 | 96.8 | 106 | 104 | 118 | 87.8 | 100 | 96.2 | 99.3 | 93.8 | 93.6 | 98.9 | 98.8 | 99.7 | 96.4 | 94.2 | 105 | 106 | 108 | 54.4 | 49.2 | 104 | 97.6 | 97.4 | 90.6 | 101
7 | Cc1cc2nc3c(=O)[nH]c(=O)nc-3n(C[C@H](O)[C@H](O)[C@H](O)CO)c2cc1C [riboflavin] | > 10 | > 10 | > 10 | > 10 | > 10 | 0 | 0 | 0 | 0 | 0 | 99 | 95.3 | 92.7 | 107 | 96.8 | 96.6 | 91.9 | 96.3 | 94.2 | 95.4 | 97.4 | 101 | 96.2 | 102 | 94.6 | 95.9 | 85 | 93.7 | 93.4 | 93 | 102 | 104 | 86 | 107 | 92.2
8 | O=c1c2ccccc2nc2n1CCc1c-2[nH]c2ccccc12 [rutaecarpine] | > 10 | > 10 | > 10 | > 10 | > 10 | 0 | 0 | 0 | 1.7 | 0 | 102 | 100 | 92.9 | 97.1 | 91.6 | 103 | 104 | 98.3 | 100 | 98.8 | 96.5 | 101 | 97 | 106 | 99.8 | 104 | 105 | 98.7 | 93.7 | 76.4 | 87 | 102 | 98.8 | 111 | 87.9
9 | COc1cc2c(c(OC)c1OC)-c1c(cc3c(c1OC)OCO3)CC(C)C(C)C2 (stereo not given) [schisandrin-B] | > 10 | > 10 | > 10 | > 10 | > 10 | 0.8 | 0 | 0 | 0 | 0 | 97.5 | 99.5 | 98.9 | 100 | 77.4 | 96 | 98.5 | 93.4 | 96.1 | 101 | 101 | 91.8 | 102 | 97.3 | 93.5 | 89.1 | 99.3 | 95.8 | 105 | 101 | 96.3 | 83.3 | 94.5 | 105 | 90.1
10 | CCCc1nn(C)c2c(=O)[nH]c(-c3cc(S(=O)(=O)N4CCN(C)CC4)ccc3OCC)nc12 [sildenafil] | > 10 | > 10 | > 10 | > 10 | > 10 | 0 | 0 | 0 | 0.3 | 0 | 93.7 | 86.3 | 93.8 | 84.6 | 93.9 | 98.3 | 111 | 95.1 | 101 | 96.1 | 99.3 | 98.3 | 101 | 99.9 | 103 | 96.7 | 104 | 99.4 | 102 | 81.8 | 106 | 94.6 | 105 | 91.8 | 129
11 | CN1CCN(c2ncc(-c3cc(Cl)cc(Cl)c3Cl)c(N)n2)CC1 [sipatrigine] | > 10 | > 10 | > 10 | > 10 | > 10 | 0 | 0 | 0 | 0.2 | 0 | 85.5 | 91.1 | 92.3 | 91.8 | 85.3 | 110 | 107 | 100 | 101 | 94.5 | 104 | 102 | 104 | 103 | 92.9 | 100 | 103 | 110 | 98.4 | 86.4 | 92.1 | 105 | 108 | 111 | 92.3
12 | OC[C@@H](O)[C@@H](O)[C@H](O)[C@@H](O)CO [sorbitol] | > 10 | > 10 | > 10 | > 10 | > 10 | 0 | 0.3 | 0 | 0 | 0 | 96.4 | 105 | 100 | 109 | 93.6 | 102 | 99.9 | 103 | 88.8 | 92.2 | 104 | 99.5 | 96.6 | 101 | 95.5 | 95.3 | 84 | 94.7 | 94.8 | 82.3 | 101 | 98 | 98.3 | 102 | 101
13 | CNC(=O)[C@@H](Cc1ccccc1)N(C)C(=O)[C@@H](Cc1ccc2ccccc2c1)N(C)C(=O)/C=C/CC(C)(C)N [tabimorelin] | > 10 | > 10 | > 10 | > 10 | > 10 | 0 | 0 | 0 | 0.6 | 0 | 99.8 | 104 | 103 | 95.4 | 92.3 | 95.8 | 102 | 101 | 102 | 99.1 | 99.9 | 101 | 96.8 | 103 | 98.3 | 105 | 96.5 | 106 | 87.3 | 96.5 | 96.4 | 100 | 100 | 104 | 88.2
